In ChEMBL document CHEMBL2163236, “7-Oxo-[1,4]oxazino[2,3,4-ij]quinoline-6-carboxamides as selective CB(2) cannabinoid receptor ligands: structural investigations around a novel class of full agonists” (J Med Chem, 2012):
pIC50, pKi: −log10 of the molar value.

Experiments:
Cannabinoid receptor 2 [1] = target: T1, Cannabinoid receptor 2 (Homo sapiens, UniProt P34972); assay: Agonist activity at human recombinant CB2 receptor expressed in CHO cell membranes assessed as inhibition of forskolin-induced cAMP accumulation; format: functional, cell-based
Homo sapiens = species on record: Homo sapiens; assay: Selectivity ratio of Ki for human recombinant CB1 receptor to KI for human recombinant CB2 receptor
Cannabinoid receptor 1 [2] = target: Cannabinoid receptor 1 (Homo sapiens, UniProt P21554); assay: Displacement of [3H]CP-55940 from human recombinant CB1 receptor expressed in CHO cell membranes incubated for 90 mins by scintillation counting
Cannabinoid receptor 2 [3] = target: T1, Cannabinoid receptor 2; assay: Displacement of [3H]CP-55940 from human recombinant CB2 receptor expressed in CHO cell membranes incubated for 60 mins by scintillation counting
Cannabinoid receptor 2 [4] = target: T2, Cannabinoid receptor 2 (Rattus norvegicus, UniProt Q9QZN9); assay: Displacement of [3H]CP-55940 from CB2 receptor in Sprague-Dawley rat spleen by scintillation counting
T2 sequence (Q9QZN9 whole entry): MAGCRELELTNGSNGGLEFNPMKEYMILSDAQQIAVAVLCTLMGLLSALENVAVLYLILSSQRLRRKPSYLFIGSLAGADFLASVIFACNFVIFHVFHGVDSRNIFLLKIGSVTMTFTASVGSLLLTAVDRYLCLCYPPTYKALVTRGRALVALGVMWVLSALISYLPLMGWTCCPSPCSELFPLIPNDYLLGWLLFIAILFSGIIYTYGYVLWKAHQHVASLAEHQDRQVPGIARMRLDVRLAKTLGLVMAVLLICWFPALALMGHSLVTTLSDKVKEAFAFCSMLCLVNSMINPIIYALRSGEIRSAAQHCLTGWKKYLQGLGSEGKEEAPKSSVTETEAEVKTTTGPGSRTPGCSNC

Cannabinoid receptor 1 [5] = target: Cannabinoid receptor 1 (Rattus norvegicus, UniProt P20272); assay: Displacement of [3H]CP-55940 from CB1 receptor in Sprague-Dawley rat brain by scintillation counting
Sequence of Cannabinoid receptor 1 (Rattus norvegicus, UniProt P20272) (P20272 whole entry): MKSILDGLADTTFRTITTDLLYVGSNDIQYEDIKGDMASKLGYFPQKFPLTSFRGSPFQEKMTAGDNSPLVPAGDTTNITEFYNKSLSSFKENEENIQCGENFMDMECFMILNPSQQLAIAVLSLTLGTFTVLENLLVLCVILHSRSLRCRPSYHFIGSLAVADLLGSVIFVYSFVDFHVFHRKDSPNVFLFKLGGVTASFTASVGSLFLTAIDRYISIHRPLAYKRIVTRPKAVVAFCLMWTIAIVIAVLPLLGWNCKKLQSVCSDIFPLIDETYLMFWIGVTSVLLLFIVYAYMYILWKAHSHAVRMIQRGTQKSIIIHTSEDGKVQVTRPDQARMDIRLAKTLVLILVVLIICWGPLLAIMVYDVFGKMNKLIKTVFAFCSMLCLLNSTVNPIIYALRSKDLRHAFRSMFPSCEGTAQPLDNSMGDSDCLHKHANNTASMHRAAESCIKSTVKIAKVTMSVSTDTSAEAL

T1 sequence (P34972 whole entry): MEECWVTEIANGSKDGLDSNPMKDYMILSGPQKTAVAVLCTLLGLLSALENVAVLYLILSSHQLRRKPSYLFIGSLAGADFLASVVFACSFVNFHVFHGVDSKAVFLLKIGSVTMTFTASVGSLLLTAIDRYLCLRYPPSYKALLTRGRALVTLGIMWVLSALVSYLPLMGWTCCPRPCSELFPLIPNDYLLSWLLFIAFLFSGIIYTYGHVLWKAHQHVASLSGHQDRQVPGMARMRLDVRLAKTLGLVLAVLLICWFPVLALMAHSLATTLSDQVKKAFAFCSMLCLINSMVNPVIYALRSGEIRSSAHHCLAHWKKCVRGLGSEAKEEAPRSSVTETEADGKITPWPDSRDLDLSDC
Sequence of Cannabinoid receptor 1 (Homo sapiens, UniProt P21554) (P21554 whole entry): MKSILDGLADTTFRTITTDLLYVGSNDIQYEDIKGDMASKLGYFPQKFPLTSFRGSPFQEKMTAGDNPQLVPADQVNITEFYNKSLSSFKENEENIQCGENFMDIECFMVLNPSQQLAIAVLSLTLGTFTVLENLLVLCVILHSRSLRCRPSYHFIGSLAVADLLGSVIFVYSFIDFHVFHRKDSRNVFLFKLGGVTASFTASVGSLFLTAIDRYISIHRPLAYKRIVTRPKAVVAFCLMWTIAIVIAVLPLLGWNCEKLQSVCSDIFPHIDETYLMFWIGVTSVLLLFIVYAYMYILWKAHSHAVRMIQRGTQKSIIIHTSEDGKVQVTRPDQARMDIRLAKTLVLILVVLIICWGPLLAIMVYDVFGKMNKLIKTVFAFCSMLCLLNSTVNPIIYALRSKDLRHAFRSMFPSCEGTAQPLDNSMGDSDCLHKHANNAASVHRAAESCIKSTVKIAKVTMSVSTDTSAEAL

Row | SMILES | pIC50 (Cannabinoid receptor 2 [1]) | Ratio Ki (Homo sapiens) | pKi (Cannabinoid receptor 1 [2]) | pKi (Cannabinoid receptor 2 [3]) | pKi (Cannabinoid receptor 2 [4]) | pKi (Cannabinoid receptor 1 [5])
1 | CCC1COc2cccc3c(=O)c(C(=O)Nc4nccs4)cn1c23 (racemic) | 5.95 | 5 | 5.86 | 6.58 | 6.49 | 5.79
2 | CCC1COc2cccc3c(=O)c(C(=O)N(C(C)C)C(C)C)cn1c23 (racemic) | 6.37 | > 118 | < 5.00 | 7.07 | 6.98 | < 5.00
3 | CCCC1COc2cccc3c(=O)c(C(=O)NC4CCCCC4)cn1c23 (racemic) | 8.82 | 32 | 7.99 | 9.49 | 8.74 | 7.87
4 | CCCC1COc2cccc3c(=O)c(C(=O)NC45CC6CC(CC(C6)C4)C5)cn1c23 (racemic) | 7.82 | 92 | 6.67 | 8.63 | 8.56 | 6.62
5 | CCCC1COc2cccc3c(=O)c(C(=O)NC45CC6CC(C)(CC(C)(C6)C4)C5)cn1c23 (racemic) | 7.70 | 55 | 6.70 | 8.44 | 7.97 | 6.32
6 | CCCC1COc2ccc(C)c3c(=O)c(C(=O)NC4CCCCC4)cn1c23 (racemic) | 6.91 | 20 | 6.12 | 7.42 | 7.37 | 6.06
7 | CCCC1COc2ccc(C)c3c(=O)c(C(=O)NC45CC6CC(CC(C6)C4)C5)cn1c23 (racemic) | 7.38 | 43 | 6.35 | 7.98 | 7.88 | 6.32
8 | O=C(NC1CCCCC1)c1cn2c3c(cccc3c1=O)OCC2C1CC1 (racemic) | 7.17 | 7 | 6.99 | 7.82 | 7.74 | 6.91
9 | O=C(NC1CCCCCC1)c1cn2c3c(cccc3c1=O)OCC2C1CC1 (racemic) | 7.91 | 29 | 7.04 | 8.51 | 8.45 | 7.00
10 | O=C(NC12CC3CC(CC(C3)C1)C2)c1cn2c3c(cccc3c1=O)OCC2C1CC1 (racemic) | 7.49 | 44 | 6.41 | 8.05 | 7.99 | 6.32
11 | CC(C)C1COc2cccc3c(=O)c(C(=O)NC45CC6CC(CC(C6)C4)C5)cn1c23 (racemic) | 7.91 | 86 | 6.49 | 8.43 | 8.37 | 6.44
12 | CCC1COc2c(F)ccc3c(=O)c(C(=O)NC45CC6CC(CC(C6)C4)C5)cn1c23 (racemic) | 7.57 | 53 | 6.41 | 8.13 | 8.02 | 6.34
13 | CCC1COc2c(F)c(F)cc3c(=O)c(C(=O)NC45CC6CC(CC(C6)C4)C5)cn1c23 (racemic) | 6.84 | 53 | 5.76 | 7.48 | 7.43 | 5.74
14 | CCC1COc2c(OC)ccc3c(=O)c(C(=O)NC45CC6CC(CC(C6)C4)C5)cn1c23 (racemic) | 7.62 | 77 | 6.28 | 8.17 | 8.04 | 6.23
15 | O=C(NC12CC3CC(CC(C3)C1)C2)c1cn2c3c(cccc3c1=O)OC(c1ccccc1)C2c1ccccc1 (racemic) | – | – | < 5.00 | < 5.00 | < 5.00 | < 5.00
16 | Cc1cc2c3c(c1)c(=O)c(C(=O)NC14CC5CC(CC(C5)C1)C4)cn3C(c1ccccc1)CO2 (racemic) | 6.33 | – | – | – | – | –
17 | CC1COc2cccc3c(=O)c(C(=O)NC4CCCCCC4)cn1c23 (racemic) | 6.68 | > 263 | < 5.00 | 7.42 | 7.28 | < 5.00
18 | CC1COc2cccc3c(=O)c(C(=O)NC45CC6CC(CC(C6)C4)C5)cn1c23 (racemic) | 6.64 | > 212 | < 5.00 | 7.33 | 7.26 | < 5.00
19 | CCC1COc2cccc3c(=O)c(C(=O)NC4CCCCC4)cn1c23 (racemic) | 7.21 | 37 | 6.09 | 7.66 | 7.62 | 6.01
20 | CCC1COc2cccc3c(=O)c(C(=O)NC4CCCCCC4)cn1c23 (racemic) | 7.38 | 47 | 6.36 | 8.03 | 7.94 | 6.30
